Earlier results in US6492174B1, “Methods of initiating embryogenic cultures in plants” (Institute of Paper Science & Technology, priority 2000, dated 2002).

System: cultured cells of Onosma paniculatum
Details: media containing 0.01 ppb brassinolide; cited from earlier work

Question: For `CC(C)[C@H](C)[C@@H](O)[C@H](O)[C@@H](C)[C@H]1CC[C@H]2[C@@H]3COC(=O)[C@H]4C[C@H](O)[C@H](O)C[C@]4(C)[C@H]3CC[C@]12C` [brassinolide], which “growth of cultured cells” value is on record?
Answer: The value was “slightly increased growth”.
